Laboratory results published in paper PMC8036409 (Molecules, 2021).
Values joined by “and” are separate entries in the source; they are usually repeats but may differ in a detail not shown here. Identical values can stand only once.

Legend:
α-glucosidase = α-glucosidase (Saccharomyces cerevisiae, UniProt P53341); assay: α-Glucosidase inhibition assay; format: biochemical
Protocol: α-Glucosidase (0.5 unit/mL) was mixed with phosphate buffer (0.1 M, pH 6.9) to make enzyme stock solution. Likewise, a substrate solution (p-nitrophenyl-α-D-glucopyranoside) was also prepared in phosphate buffer. Each of the sample dilutions was mixed with 1 mL of the enzyme solution separately and incubated at 37 °C for 15 min. Sodium carbonate solution (80 µL of 0.2 M) was added to the reaction mixture to stop the reaction, and the absorbance was measured at 405 nm. The % enzyme inhibition was calculated as (5) % inhibition=Control absorbance−Test absorbance /Control absorbance × 100

α-amylase = assay: α-Amylase inhibition assay (DNS method); format: biochemical; conditions: for Percent Inhibition of α-Amylase (Mean ± S.E.M): n = 3
Protocol: The degree of inhibition was assessed by quantifying maltose equivalents using a slightly modified dinitrosalicylic acid (DNS) method. From each of the sample dilutions, 1 mL was pre-incubated with 1 U/mL α-amylase for half an hour. After incubation, 1 mL of 1% of starch solution was added to the mixture and further incubated for 10 min. To stop the reaction, 1 mL DNS reagent was added to the reaction mixture and heated in a boiling water bath for 5 min. […] The absorbance was measured at 540 nm.

[1] = DPPH free radical scavenging assay; conditions: for DPPH Percent Inhibition (Mean ± S.E.M): n = 3
Protocol: (§1) The free radical scavenging capacity of the isolated compounds was determined using DPPH and ABTS assays. To prepare the DPPH stock solution, 30 mg of DPPH was dissolved in 100 mL of methanol. Likewise, to prepare ABTS stock solution, 383 mg of 7 mM ABTS and 66.2 mg of 2.45 mM K2S2O8 were taken, each of them was individually dissolved in 100 mL of methanol and mixed together thoroughly. For the free radical development, the solutions were kept in dark for one day. Different dilutions (62.5, 125, 250, 500, 1000 μg/mL) from each of the sample stock solutions (5 mg/5 mL of methanol) were prepared. Each of the dilutions (0.8 mL) was mixed with 0.8 mL of DPPH stock solution and incubated for 15 min and their absorbance was recorded at 515 nm. Likewise, 0.8 mL of each of the same dilutions was mixed with 2 mL of ABTS solution, incubated for 25 min and their absorbance was recorded at 745 nm. The percent scavenging potentials of compounds were calculated using the following equation:(1) Percent scavenging= A−B/A × 100, where A is the absorbance of oxidized stock (DPPH/ABTS) used as control, and B is the absorbance of the sample.

[2] = ABTS free radical scavenging assay; conditions: for ABTS Percent Inhibition (Mean ± S.E.M): n = 3
Protocol: as §1

[3] = molecular target: T1, acetylcholinesterase (AChE) (Homo sapiens, UniProt P22303); assay: biochemical
T1 sequence (P22303 32-614, species assumed): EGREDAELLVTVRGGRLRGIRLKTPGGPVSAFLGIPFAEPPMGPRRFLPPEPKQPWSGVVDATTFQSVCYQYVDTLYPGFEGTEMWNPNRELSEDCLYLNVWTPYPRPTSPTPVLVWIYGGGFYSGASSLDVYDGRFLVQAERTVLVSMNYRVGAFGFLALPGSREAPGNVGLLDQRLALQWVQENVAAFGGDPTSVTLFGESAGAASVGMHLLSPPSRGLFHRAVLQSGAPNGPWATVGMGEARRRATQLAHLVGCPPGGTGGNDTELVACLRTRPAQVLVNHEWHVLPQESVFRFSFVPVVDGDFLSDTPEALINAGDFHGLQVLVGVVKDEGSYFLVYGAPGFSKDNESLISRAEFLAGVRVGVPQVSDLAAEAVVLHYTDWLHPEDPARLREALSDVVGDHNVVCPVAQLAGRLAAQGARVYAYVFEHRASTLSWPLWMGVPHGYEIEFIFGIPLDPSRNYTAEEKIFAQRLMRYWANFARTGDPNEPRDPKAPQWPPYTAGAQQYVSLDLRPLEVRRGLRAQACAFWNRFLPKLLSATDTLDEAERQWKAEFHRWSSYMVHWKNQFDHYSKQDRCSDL
Protocol: (§2) AChE and BChE were used as representative enzymes to determine the anticholinesterase effect of isolated compounds using Ellman’s assay with slight modifications. Sample stocks (5 mg/5 mL in methanol) were prepared and a range of serial dilutions (125, 250, 500, 1000 μg/mL) was made from each of them. Phosphate buffer (6.8 pH) was used for making the enzyme and substrate solutions.

[4] = molecular target: T2, butyrylcholinesterase (BChE) (Homo sapiens, UniProt P06276); assay: Butyrylcholinesterase inhibition, Ellman's assay; format: biochemical
T2 sequence (P06276 29-602, species assumed): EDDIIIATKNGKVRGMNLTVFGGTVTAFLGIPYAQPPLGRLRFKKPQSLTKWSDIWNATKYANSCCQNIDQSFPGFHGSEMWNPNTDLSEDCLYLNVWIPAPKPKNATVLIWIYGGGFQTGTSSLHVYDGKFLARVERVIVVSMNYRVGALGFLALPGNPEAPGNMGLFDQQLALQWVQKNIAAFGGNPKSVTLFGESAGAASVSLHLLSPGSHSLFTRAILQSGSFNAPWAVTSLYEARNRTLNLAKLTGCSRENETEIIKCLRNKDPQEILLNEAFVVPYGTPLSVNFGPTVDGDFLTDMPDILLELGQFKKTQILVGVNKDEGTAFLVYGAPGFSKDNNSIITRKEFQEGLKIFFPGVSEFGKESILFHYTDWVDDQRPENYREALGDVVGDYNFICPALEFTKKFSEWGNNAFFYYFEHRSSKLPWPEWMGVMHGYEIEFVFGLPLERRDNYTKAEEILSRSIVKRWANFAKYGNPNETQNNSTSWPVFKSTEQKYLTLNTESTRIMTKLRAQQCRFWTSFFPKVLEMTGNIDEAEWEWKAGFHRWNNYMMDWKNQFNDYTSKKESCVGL
Protocol: as §2

[5] = molecular target: T1, acetylcholinesterase (AChE); assay: biochemical; conditions: read-out: Percent AChE (Mean ± SEM), %inhibition
[6] = molecular target: T2, butyrylcholinesterase (BChE); assay: Butyrylcholinesterase inhibition, Ellman's assay; format: biochemical; conditions: read-out: Percent BChE (Mean ± SEM), %inhibition
[7] = read-out: Percent AChE (Mean ± SEM), %inhibition
[8] = read-out: Percent BChE (Mean ± SEM), %inhibition

α-glucosidase, sequence (P53341 whole entry): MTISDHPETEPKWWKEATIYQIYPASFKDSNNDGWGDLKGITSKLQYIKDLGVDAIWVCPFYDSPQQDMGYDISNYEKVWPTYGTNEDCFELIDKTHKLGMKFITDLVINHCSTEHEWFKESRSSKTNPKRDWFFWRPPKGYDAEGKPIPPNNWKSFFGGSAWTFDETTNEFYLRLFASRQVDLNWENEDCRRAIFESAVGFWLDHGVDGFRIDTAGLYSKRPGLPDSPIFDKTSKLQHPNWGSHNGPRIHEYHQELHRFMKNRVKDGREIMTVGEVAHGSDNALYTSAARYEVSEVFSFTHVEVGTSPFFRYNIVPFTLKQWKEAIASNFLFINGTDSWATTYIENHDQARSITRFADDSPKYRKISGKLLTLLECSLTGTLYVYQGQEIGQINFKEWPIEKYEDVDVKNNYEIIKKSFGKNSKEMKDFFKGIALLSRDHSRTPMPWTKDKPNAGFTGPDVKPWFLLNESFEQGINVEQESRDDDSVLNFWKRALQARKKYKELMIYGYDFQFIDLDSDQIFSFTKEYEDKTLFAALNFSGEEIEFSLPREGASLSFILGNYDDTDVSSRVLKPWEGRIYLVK

**Q.** With C[C@H]1O[C@H](O[C@H]2[C@H](O)[C@@H](O)[C@@H](O[C@H]3[C@H](O)[C@@H](O)C(O)O[C@@H]3CO)O[C@@H]2CO)[C@H](O)[C@@H](O)[C@@H]1N[C@H]1C=C(CO)[C@@H](O)[C@H](O)[C@H]1O (stereo partly shown) [Acarbose, reference compound] as the compound, how does the “Percent Inhibition of α-Glucosidase (Mean ± S.E.M)” value (α-glucosidase) read?
**A.** 93.72 ± 1.03% and 67.16 ± 1.58% and 58.73 ± 1.09% and 48.76 ± 2.20%

**Q.** What about the “Percent Inhibition of α-Amylase (Mean ± S.E.M)” value (“Percent Inhibition of α-Amylase” for short) (α-amylase; 62.5 μg/mL) of the same compound?
**A.** 48.13 ± 2.09%

**Q.** What about the “Percent Inhibition of α-Amylase” value (α-amylase; 125 μg/mL) of the same compound?
**A.** 57.03 ± 1.19%

**Q.** And the “Percent Inhibition of α-Amylase” value (α-amylase; 250 μg/mL)?
**A.** 66.37 ± 1.18%

**Q.** And the “Percent Inhibition of α-Amylase” value (α-amylase; 500 μg/mL)?
**A.** 77.11 ± 1.41%

**Q.** What about the “Percent Inhibition of α-Amylase” value (α-amylase; 1000 μg/mL) of the same compound?
**A.** 92.12 ± 0.83%

**Q.** For O=C1O[C@H]([C@@H](O)CO)C(O)=C1O [Ascorbic Acid, reference compound], which “DPPH IC50” value [1] is on record?
**A.** 35 µg/mL

**Q.** And the “DPPH Percent Inhibition (Mean ± S.E.M)” value ([1]; 62.5 μg/mL)?
**A.** 55.12 ± 1.30%

**Q.** And the “DPPH Percent Inhibition (Mean ± S.E.M)” value ([1]; 125 μg/mL)?
**A.** 65.35 ± 1.08%

**Q.** What about the “DPPH Percent Inhibition (Mean ± S.E.M)” value ([1]; 250 μg/mL) of the same compound?
**A.** 78.63 ± 1.48%

**Q.** What about the “DPPH Percent Inhibition (Mean ± S.E.M)” value ([1]; 500 μg/mL) of the same compound?
**A.** 87.87 ± 1.64%

**Q.** What about the “DPPH Percent Inhibition (Mean ± S.E.M)” value ([1]; 1000 μg/mL) of the same compound?
**A.** 94.14 ± 1.76%

**Q.** And the “ABTS IC50” value [2]?
**A.** 35 µg/mL

**Q.** And the “ABTS Percent Inhibition (Mean ± S.E.M)” value ([2]; 62.5 μg/mL)?
**A.** 55.41 ± 1.39%

**Q.** And the “ABTS Percent Inhibition (Mean ± S.E.M)” value ([2]; 125 μg/mL)?
**A.** 63.30 ± 2.75%

**Q.** What about the “ABTS Percent Inhibition (Mean ± S.E.M)” value ([2]; 250 μg/mL) of the same compound?
**A.** 75.14 ± 3.16%

**Q.** And the “ABTS Percent Inhibition (Mean ± S.E.M)” value ([2]; 500 μg/mL)?
**A.** 83.45 ± 2.26%

**Q.** What about the “ABTS Percent Inhibition (Mean ± S.E.M)” value ([2]; 1000 μg/mL) of the same compound?
**A.** 93.07 ± 0.53%

**Q.** What does the source list for CC(C)CCCCC1CC2CC(C)(C)C3C4CC(C)(C)C5CC(O)CC(C)C5C4CC(C)C3C2C1 (stereo not shown) [Compound IX, 5,5,7,7,11,13-hexamethyl-2-(5-methylhexyl)icosahydro-1H-cyclopenta[a]chrysen-9-ol]?
**A.** DPPH IC50 [1]: 76 µg/mL; DPPH Percent Inhibition (Mean ± S.E.M) ([1]; 62.5 μg/mL): 47.85 ± 2.61%; DPPH Percent Inhibition (Mean ± S.E.M) ([1]; 250 μg/mL): 64.11 ± 2.91%; DPPH Percent Inhibition (Mean ± S.E.M) ([1]; 500 μg/mL): 72.19 ± 2.17%; DPPH Percent Inhibition (Mean ± S.E.M) ([1]; 1000 μg/mL): 80.21 ± 040 ^ns percent; ABTS IC50 [2]: 76 µg/mL; ABTS Percent Inhibition (Mean ± S.E.M) ([2]; 62.5 μg/mL): 47.83 ± 2.26%; ABTS Percent Inhibition (Mean ± S.E.M) ([2]; 125 μg/mL): 57.19 ± 2.01%; ABTS Percent Inhibition (Mean ± S.E.M) ([2]; 250 μg/mL): 62.24 ± 2.30%; ABTS Percent Inhibition (Mean ± S.E.M) ([2]; 500 μg/mL): 71.29 ± 1.11%; ABTS Percent Inhibition (Mean ± S.E.M) ([2]; 1000 μg/mL): 79.23 ± 1.01%; IC50 ([3]; read-out: AChE IC50 (converted)): 186 µM; inhibition at 250 µg/mL [3, 7]: 63.1 ± 1.51%; inhibition at 500 µg/mL [3, 7]: 71.3 ± 1.37%; inhibition at 1000 µg/mL [3, 7]: 78.11 ± 0.61%; IC50 [4]: 186 µM; inhibition at 125 µg/mL [4, 8]: 55.4 ± 1.01%; inhibition at 250 µg/mL [4, 8]: 63 ± 1.45%; inhibition at 500 µg/mL [4, 8]: 70.2 ± 0.71%; inhibition at 1000 µg/mL [4, 8]: 78 ± 2.62%; α-Amylase IC50 (α-amylase): 122 µg/mL; Percent Inhibition of α-Amylase (Mean ± S.E.M) (α-amylase; 62.5 μg/mL): 40.13 ± 1.27 %; Percent Inhibition of α-Amylase (Mean ± S.E.M) (α-amylase; 125 μg/mL): 50.61 ± 1.52 %; Percent Inhibition of α-Amylase (Mean ± S.E.M) (α-amylase; 250 μg/mL): 59.14 ± 0.82 %; Percent Inhibition of α-Amylase (Mean ± S.E.M) (α-amylase; 500 μg/mL): 65.13 ± 1.43 %; Percent Inhibition of α-Amylase (Mean ± S.E.M) (α-amylase; 1000 μg/mL): 70.21 ± 1.91 %; inhibition at 62.5 µg/mL [5]: 46 ± 1.71%; inhibition at 62.5 µg/mL [6]: 45.9 ± 1.26%
